Assay results published in US8178506B2, “Oligomeric compounds and compositions for use in modulation of small non-coding RNAs” (Regulus Therapeutics Inc., priority 2003, dated 2012).
In the oligonucleotide strings, read from the 5' end, every base follows the letter of its sugar. An asterisk marks phosphorothioate; unmarked linkages are phosphodiester. Other units and linkages are bracketed, terminal groups are in braces. A string of capitals states the bases alone. e = 2'-O-(2-methoxyethyl) (MOE); [5mC] = 5-methylcytosine; d = 2'-deoxy (DNA)

Experiments:
[1] = tested on: BJ, B16-F10, T47D, T47Dp53 and HeLa cells; experiment: Cell cycle assay (propidium iodide flow cytometry), cell line panel; format: cell-based; settings: 150 nM oligomeric compound, 4.5 μg/ml LIPOFECTIN, after 72 hours, propidium iodide flow cytometry
HeLa cells = experiment: Cell cycle assay in HeLa cells; format: cell-based, human; settings: HeLa cells
IGFBP-1 = IGFBP-1 mRNA expression in HepG2 cells; format: cell-based, human; settings: for IGFBP1 mRNA expression: Experiment 2, insulin treated: HepG2 cells transfected with oligomeric compound, 1 nM insulin for four hours, UTC + 1 nM insulin = 100
Method: (§1) Approximately 28 hours after transfection, the cells are subjected to serum starvation for a period of 12 to 16 hours, using serum-free growth medium. Following serum starvation, cells are treated with 1 nM insulin (insulin-treated) or are left untreated (basal conditions) for approximately four hours. At the same time, untreated control cells in both plates are treated with 100 nM insulin to determine the maximal insulin response. Following insulin treatment (forty-eight hours after transfection), total RNA is harvested from all samples, and the amount of total RNA from each sample is determined using a Ribogreen assay (Invitrogen Corporation, Carlsbad, Calif.). Real-time PCR is performed on the total RNA samples using primer/probe sets for three insulin responsive genes: insulin-like growth factor binding protein-1 (IGFBP-1), cytosolic PEPCK (PEPCK-C), and follistatin. Gene expression levels obtained by real-time PCR are normalized for total RNA content in the samples.
(§2) Oligomeric compounds of the present invention were tested for their effects on insulin signaling in HepG2 cells. HepG2 cells were plated at 7500 cells/well in collagen coated 96-well plates. The following day, cells were transfected with oligomeric compounds targeting miRNAs using 100 nM oligomeric compound in LIPOFECTIN™ (Invitrogen Corporation, Carlsbad, Calif.) in two 96-well plates. The oligomeric compounds were tested in triplicate on each 96-well plate, except for positive and negative controls, which were measured up to six times per plate. At the end of transfection, the transfection medium was replaced by regular growth medium. Twenty-eight hours post-transfection, the cells were subjected to overnight (sixteen to eighteen hours) serum starvation using serum free growth medium. Forty-four hours post-transfection, the cells in the transfected wells were treated with either no insulin (“basal” Experiment 1, for identification of insulin-mimetic compounds) or with 1 nM insulin (“insulin treated” Experiment 2, for identification of insulin sensitizers) for four hours. At the same time, in both plates, cells in some of the un-transfected control wells are treated with 100 nM insulin to determine maximal insulin response. At the end of the insulin or no-insulin treatment (forty-eight hours post-transfection), total RNA is isolated from both the basal and insulin treated (1 nM) 96-well plates, and the amount of total RNA from each sample is determined using a Ribogreen assay (Molecular Probes, Eugene, Oreg.). Real-time PCR is performed on all the total RNA samples using primer/probe sets for three insulin responsive genes: PEPCK-c, IGFBP-1 and follistatin. Expression levels for each gene are normalized to total RNA, and values+standard deviation are expressed relative to the transfectant only untreated control (UTC) and negative control compounds.
(§3) Protocols for treatment of HepG2 cells and transfection of oligomeric compounds are as described in Example 18. Also as described in Example 18, forty-four hours post-transfection, the cells in the transfected wells were treated with either no insulin (“basal” Experiment 3 (below), for identification of insulin-mimetic compounds) or with 1 nM insulin (“insulin treated” Experiment 4 (below), for identification of insulin sensitizers) for four hours. At the same time, in both plates, cells in some of the un-transfected control wells are treated with 100 nM insulin to determine maximal insulin response. At the end of the insulin or no-insulin treatment (forty-eight hours post-transfection), total RNA is isolated from both the basal and insulin treated (1 nM) 96-well plates, and the amount of total RNA from each sample is determined using a Ribogreen assay (Molecular Probes, Eugene, Oreg.).

PEPCK-c = PEPCK-c mRNA expression in HepG2 cells; format: cell-based, human; settings: for PEPCKc mRNA expression: Experiment 2, insulin treated: HepG2 cells transfected with oligomeric compound, 1 nM insulin for four hours, UTC + 1 nM insulin = 100
Method: as §1, §2, §3

follistatin = experiment: Follistatin mRNA expression in HepG2 cells; format: cell-based, human; settings: for Follistatin mRNA expression: Experiment 2, insulin treated: HepG2 cells transfected with oligomeric compound, 1 nM insulin for four hours, UTC + 1 nM insulin = 100
Method: as §1, §2, §3

PPARγ = PPARγ mRNA expression in adipocytes (real-time PCR); format: cell-based, human; settings: differentiating adipocytes transfected with oligomeric compound; Table 75
aP2 = aP2 mRNA expression in adipocytes (real-time PCR); format: cell-based, human; settings: differentiating adipocytes transfected with oligomeric compound; Table 75
adipocytes = experiment: Triglyceride accumulation assay in adipocytes; format: cell-based, human; settings: differentiating adipocytes transfected with oligomeric compound; Table 75
Glut4 = Glut4 mRNA expression in adipocytes (real-time PCR); format: cell-based, human; settings: differentiating adipocytes transfected with oligomeric compound; Table 75
HSL = HSL mRNA expression in adipocytes (real-time PCR); format: cell-based, human; settings: differentiating adipocytes transfected with oligomeric compound; Table 75
T47D cells = experiment: Caspase-3 activity assay (apoptosis) in T47D cells; settings: T47D cells, 200 nM oligomeric compound, 48 hours; experiment of Table 10
[2] = 150 nM oligomeric compound, 24 hours, relative to untreated control (UTC = 100)
[3] = 150 nM oligomeric compound, 48 hours after treatment, relative to untreated control (UTC=100)
[4] = 150 nM, 48 hours, relative to untreated control
[5] = HepG2 cells, Experiment 1, basal (no insulin), four hours, UTC = 100
[6] = Experiment 3, basal (no insulin), HepG2 cells, 48 hours post-transfection
[7] = Experiment 4, insulin-sensitization: HepG2 cells treated with 1 nM insulin for four hours, 48 h post-transfection, mRNA by real-time PCR

328342 (e[5mC]*eA*eA*eT*eT*dG*d[5mC]*dG*d[5mC]*dT*dA*d[5mC]*dA*dG*dA*eA*e[5mC]*eT*eG*eT) [compound 328342]
G1 (percentage of cells in phase of the cell cycle) [1]: 62.3%
G2/M (percentage of cells in phase of the cell cycle) [1]: 12.8%
S (percentage of cells in phase of the cell cycle) [1]: 24.9%
SubG1 (percentage of cells in phase of the cell cycle) [1]: 4.8%
aneuploid (percentage of cells) [1]: 15.2%
% cells aneuploid (HeLa cells; [2]): 67%
% cells in cell cycle phase G1 (HeLa cells; [2]): 33%
% cells in cell cycle phase G2/M (HeLa cells; [2]): 238%
% cells in cell cycle phase S (HeLa cells; [2]): 95%
% cells in cell cycle phase subG1 (HeLa cells; [2]): 192%
% cells in cell cycle phase: G1 (HeLa cells; [3]): 55%
% cells in cell cycle phase: G2/M (HeLa cells; [3]): 225%
% cells in cell cycle phase: S (HeLa cells; [3]): 115%
% cells in cell cycle phase: aneuploid (HeLa cells; [3]): 107%
% cells in cell cycle phase: subG1 (HeLa cells; [3]): 189%
% cells in cell cycle phase G1 (HeLa cells; [4]): 96%
% cells in cell cycle phase G2/M (HeLa cells; [4]): 138%
% cells in cell cycle phase S (HeLa cells; [4]): 89%
% cells in cell cycle phase aneuploid (HeLa cells; [4]): 96%
% cells in cell cycle phase subG1 (HeLa cells; [4]): 103%
IGFBP1 mRNA expression (IGFBP-1): 98
PEPCKc mRNA expression (PEPCK-c): 39
Follistatin mRNA expression (follistatin): 88

328769 (antisense eA*eG*eG*e[5mC]*eT*dG*dG*dA*d[5mC]*dA*dG*d[5mC]*dA*d[5mC]*dA*e[5mC]*eA*eA*e[5mC]*e[5mC]) [compound 328769]
IGFBP1 mRNA expression (IGFBP-1): 110
PEPCKc mRNA expression (PEPCK-c): 100
Follistatin mRNA expression (follistatin): 84

341802 (antisense AGCUGCUUUUGGGAUUCCGUUG; all 2'-MOE, all phosphorothioate, methylation of C and T or U not given here) [compound 341802]
PPAR gamma mRNA (PPARγ): 127 percentage of untreated control (UTC)
aP2 mRNA (aP2): 98 percentage of untreated control (UTC)
TG (triglyceride accumulation) (adipocytes): 155 percentage of untreated control (UTC)
GLUT4 mRNA (Glut4): 85 percentage of untreated control (UTC)
HSL mRNA (HSL): 121 percentage of untreated control (UTC)
IGFBP1 mRNA (IGFBP-1; [5]): 186
PEPCKc mRNA (PEPCK-c; [5]): 98
Follistatin mRNA (follistatin; [5]): 136

328343 (eT*e[5mC]*eG*eA*eT*dT*dT*dA*dG*dT*dT*dA*dT*d[5mC]*dT*eA*eA*eA*eA*eA) [compound 328343]
IGFBP1 mRNA expression (IGFBP-1): 135
PEPCKc mRNA expression (PEPCK-c): 69
Follistatin mRNA expression (follistatin): 139

340362 (antisense GACTGTTGAATCTCATGGCA; 5-10-5 gapmer, wing sugar and linkages not given here, further chemistry not given here) [compound 340362]
IGFBP-1 (% UTC) (IGFBP-1; [6]): 157 % UTC
IGFBP-1 (% UTC) (IGFBP-1; [7]): 129 % UTC
PEPCK-c (% UTC) (PEPCK-c; [6]): 168 % UTC
PEPCK-c (% UTC) (PEPCK-c; [7]): 104 % UTC
Follistatin (% UTC) (follistatin; [6]): 123 % UTC
Follistatin (% UTC) (follistatin; [7]): 119 % UTC

328776 (antisense eT*e[5mC]*e[5mC]*eT*eG*dT*dA*dA*dT*dT*dA*dT*dA*dG*dG*e[5mC]*eT*eA*eG*e[5mC]) [compound 328776]
IGFBP1 mRNA expression (IGFBP-1): 86
PEPCKc mRNA expression (PEPCK-c): 125
Follistatin mRNA expression (follistatin): 114

328649 (eG*eT*eA*eG*eA*dT*dA*dA*d[5mC]*dT*dA*dA*dA*d[5mC]*dA*e[5mC]*eT*eA*e[5mC]*e[5mC]; antisense) [compound 328649]
Fold Increase over UTC (caspase-3 activity, apoptosis) (T47D cells): 1.0 fold
IGFBP1 mRNA expression (IGFBP-1): 115
PEPCKc mRNA expression (PEPCK-c): 86
Follistatin mRNA expression (follistatin): 69
